Target: T1, Calmodulin-sensitive adenylate cyclase (Bacillus anthracis, UniProt P40136)
T1 sequence (P40136 whole entry): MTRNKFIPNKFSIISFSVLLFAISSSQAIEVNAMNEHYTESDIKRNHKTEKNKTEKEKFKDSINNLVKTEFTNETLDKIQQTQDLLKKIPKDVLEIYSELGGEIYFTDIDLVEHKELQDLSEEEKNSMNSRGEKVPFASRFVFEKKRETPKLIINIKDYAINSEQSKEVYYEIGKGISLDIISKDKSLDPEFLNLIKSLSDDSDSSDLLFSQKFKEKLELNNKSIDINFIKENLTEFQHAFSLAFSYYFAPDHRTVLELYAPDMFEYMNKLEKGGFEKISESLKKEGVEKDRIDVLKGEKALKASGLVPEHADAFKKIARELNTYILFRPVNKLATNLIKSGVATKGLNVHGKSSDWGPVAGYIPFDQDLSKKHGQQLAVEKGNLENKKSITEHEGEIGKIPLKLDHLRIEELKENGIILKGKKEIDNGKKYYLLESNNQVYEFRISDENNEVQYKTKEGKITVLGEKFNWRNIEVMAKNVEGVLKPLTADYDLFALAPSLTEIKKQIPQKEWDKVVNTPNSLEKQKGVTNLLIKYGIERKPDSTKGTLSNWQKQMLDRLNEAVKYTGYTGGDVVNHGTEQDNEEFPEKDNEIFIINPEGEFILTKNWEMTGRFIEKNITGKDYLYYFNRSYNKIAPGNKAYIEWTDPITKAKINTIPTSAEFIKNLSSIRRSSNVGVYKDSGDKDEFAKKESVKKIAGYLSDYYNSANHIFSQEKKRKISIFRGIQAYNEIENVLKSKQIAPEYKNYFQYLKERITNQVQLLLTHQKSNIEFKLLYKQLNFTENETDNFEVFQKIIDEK
Experiment: Inhibition of Bacillus anthracis edema factor-induced edema in RAW264.7 mouse macrophages by cAMP-specific ELISA
Format: cell-based

Row | SMILES | IC50 [µM]
1 | O=C1C=C(c2ccc3ncccc3c2)CCC1 | > 100
2 | O=C1C=C(c2cccs2)CCC1 | > 100
3 | Cn1cc(C2=CC(=O)CCC2)cn1 | > 100
4 | O=C1C=C(c2cccnc2)CCC1 | > 100
5 | O=C1C=C(c2ccsc2)CCC1 | > 100
6 | COc1cccc(C2=CC(=O)CCC2)n1 | > 100
7 | O=C1C=C(c2ccoc2)CCC1 | > 100
8 | O=C1C=C(c2cccc3c2oc2ccccc23)CCC1 | > 100
9 | O=C1C=C(c2cccc(O)c2)CCC1 | > 100
10 | O=C1C=C(c2ccccc2)CCC1 | > 100
11 | CC1(C)CC(=O)C=C(c2ccc3[nH]ccc3c2)C1 | > 100
12 | O=C1C=C(c2nccs2)CCC1 | > 100
13 | CC1(C)CC(=O)C=C(c2cccc3c2oc2ccccc23)C1 | > 100

Source: ChEMBL document CHEMBL1157493, “Synthesis and screening of small molecule inhibitors of anthrax edema factor” (Bioorg Med Chem Lett, 2008)
